According to patent US12493040B2, “Cancer detection method using sense of smell of nematode” (HIROTSU BIO SCIENCE INC., priority 2013, dated 2025):

System: RNAi-treated eri-1 (mg366) nematodes
Experiment: RNAi screening of olfactory receptor genes: chemotaxis assay of RNAi-treated nematodes to odorants
Format: in vivo, Caenorhabditis elegans
Settings: repellent or high concentration of attractant
Method: The RNAi assay was carried out by performing an RNAi method involving the feeding (feeding RNAi method) of eri-1 (mg366) (19), using an Ahringer library (37).
Nine adult eri-1 mutants were placed on an NGM plate containing isopropyl 1-D-1-thiogalactopyranoside (0.19 g/L), ampicillin (60 mg/L), and Escherichia coli (E. coli), and were then cultured for 4 days. Subsequently, the adult worms were used in a chemotaxis assay. The chemotaxis assay was carried out as previously reported (6, 17). In the chemotaxis assay, the present inventor has used 30 to 50 worms in each experiment in which 1 μl of 10^−3- or 10^−4-diluted odorant (low concentration), or 1 and 5 μl of undiluted odorants (high concentration) were used.
The z score and a control value in each single test from 2SD were calculated in all days (Table 3) or every day. The z score was used as a threshold indicating a great difference (−1.96 and 1.96, P<0.05). […] Accordingly, the present inventor has used the z score±1 (−0.96 and 0.96, P<0.33) as a weaker threshold.

`O=Cc1ccccc1` [High Bz] was tested, and the chemotaxis index (Control nematodes) was −0.91 ± 0.007, the chemotaxis index (srh-4 RNAi-treated nematodes) was −0.75 and the chemotaxis index (srh-7 RNAi-treated nematodes) was −1.00. It also gave a chemotaxis index (srh-8 RNAi-treated nematodes) of −0.93, a chemotaxis index (srh-10 RNAi-treated nematodes) of −0.95 and a chemotaxis index (srh-11 RNAi-treated nematodes) of −0.78. The chemotaxis index (srh-15 RNAi-treated nematodes) was −0.41, the chemotaxis index (srh-16 RNAi-treated nematodes) was −0.88 and the chemotaxis index (srh-18 RNAi-treated nematodes) was −0.88. It also gave a chemotaxis index (srh-19 RNAi-treated nematodes) of −1.00, a chemotaxis index (srh-22 RNAi-treated nematodes) of −0.80 and a chemotaxis index (srh-23 RNAi-treated nematodes) of −0.88. For the same molecule, the chemotaxis index (srh-24 RNAi-treated nematodes) was −1.00, the chemotaxis index (srh-25 RNAi-treated nematodes) was −0.73 and the chemotaxis index (srh-27 RNAi-treated nematodes) was 0.96. The chemotaxis index (srh-28 RNAi-treated nematodes) was −0.75, the chemotaxis index (srh-36 RNAi-treated nematodes) was −0.95 and the chemotaxis index (srh-37 RNAi-treated nematodes) was −1.00. The chemotaxis index (srh-39 RNAi-treated nematodes) was −0.84, the chemotaxis index (srh-40 RNAi-treated nematodes) was −0.87 and the chemotaxis index (srh-41 RNAi-treated nematodes) was −0.89. It also gave a chemotaxis index (srh-44 RNAi-treated nematodes) of −0.48, a chemotaxis index (srh-45 RNAi-treated nematodes) of −0.96 and a chemotaxis index (srh-46 RNAi-treated nematodes) of −0.82. For the same molecule, the chemotaxis index (srh-48 RNAi-treated nematodes) was −0.80, the chemotaxis index (srh-49 RNAi-treated nematodes) was −0.76 and the chemotaxis index (srh-50 RNAi-treated nematodes) was −1.00. It also gave a chemotaxis index (srh-51 RNAi-treated nematodes) of −0.96, a chemotaxis index (srh-52 RNAi-treated nematodes) of −1.00 and a chemotaxis index (srh-55 RNAi-treated nematodes) of −0.98. The chemotaxis index (srh-59 RNAi-treated nematodes) was −0.91, the chemotaxis index (srh-60 RNAi-treated nematodes) was −0.98 and the chemotaxis index (srh-61 RNAi-treated nematodes) was −0.92. It also gave a chemotaxis index (srh-67 RNAi-treated nematodes) of −0.97, a chemotaxis index (srh-68 RNAi-treated nematodes) of −0.87 and a chemotaxis index (srh-69 RNAi-treated nematodes) of −0.87. The chemotaxis index (srh-70 RNAi-treated nematodes) was −0.94, the chemotaxis index (srh-71 RNAi-treated nematodes) was −0.91 and the chemotaxis index (srh-72 RNAi-treated nematodes) was −0.98. For the same molecule, the chemotaxis index (srh-74 RNAi-treated nematodes) was −0.95, the chemotaxis index (srh-75 RNAi-treated nematodes) was −0.94 and the chemotaxis index (srh-77 RNAi-treated nematodes) was −0.89. It also gave a chemotaxis index (srh-79 RNAi-treated nematodes) of −0.80, a chemotaxis index (srh-80 RNAi-treated nematodes) of −0.87 and a chemotaxis index (srh-82 RNAi-treated nematodes) of −0.88. The chemotaxis index (srh-83 RNAi-treated nematodes) was −0.45, the chemotaxis index (srh-97 RNAi-treated nematodes) was −0.86 and the chemotaxis index (srh-99 RNAi-treated nematodes) was −0.74. For the same molecule, the chemotaxis index (srh-100 RNAi-treated nematodes) was −0.94, the chemotaxis index (srh-104 RNAi-treated nematodes) was −0.91 and the chemotaxis index (srh-105 RNAi-treated nematodes) was −0.96. The chemotaxis index (srh-109 RNAi-treated nematodes) was −0.87 and the chemotaxis index (srh-111 RNAi-treated nematodes) was −0.79.
